Source: publication PMC12751061, “Expression and characterization of an endo-β-1,6-galactanase from Arabidopsis thaliana” (Biochemical Journal, 2025)

Molecular target: T1, ATIYA1 (Arabidopsis thaliana, UniProt F4HP22)
T1 construct: gene At1g13130; secreted from Komagataella phaffii X-33 (pPICZalpha-A), N-glycosylated, Ni-NTA purified
Experiment: HPAEC-PAD hydrolysis time course
Format: biochemical
Details: 100 µM substrate, 10 nM enzyme, 0.1 M sodium acetate pH 5.0, 30°C

T1 sequence (F4HP22 entry or part of it): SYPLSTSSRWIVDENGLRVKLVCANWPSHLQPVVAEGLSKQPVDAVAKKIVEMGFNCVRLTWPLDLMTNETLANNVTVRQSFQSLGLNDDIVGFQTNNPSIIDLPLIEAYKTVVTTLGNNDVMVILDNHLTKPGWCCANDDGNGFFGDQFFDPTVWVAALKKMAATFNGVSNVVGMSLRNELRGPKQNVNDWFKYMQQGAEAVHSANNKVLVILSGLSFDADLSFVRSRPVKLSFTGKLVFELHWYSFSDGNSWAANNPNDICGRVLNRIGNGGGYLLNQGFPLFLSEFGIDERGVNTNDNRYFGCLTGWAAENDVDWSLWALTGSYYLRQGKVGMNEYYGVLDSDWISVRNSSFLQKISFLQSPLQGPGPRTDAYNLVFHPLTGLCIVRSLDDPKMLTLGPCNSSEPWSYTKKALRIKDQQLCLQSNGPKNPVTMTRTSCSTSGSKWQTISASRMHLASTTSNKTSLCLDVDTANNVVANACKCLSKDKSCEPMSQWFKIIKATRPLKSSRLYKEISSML

| SMILES | HPAEC-PAD hydrolysis time course |
| --- | --- |
| CO[C@@H]1O[C@H](CO[C@@H]2O[C@H](CO[C@@H]3O[C@H](CO[C@@H]4O[C@H](CO[C@@H]5O[C@H](CO)[C@H](O)[C@H](O)[C@H]5O)[C@H](O)[C@H](O)[C@H]4O)[C@H](O)[C@H](O)[C@H]3O)[C@H](O)[C@H](O)[C@H]2O)[C@H](O)[C@H](O)[C@H]1O [methyl-β-1,6-galactopentaoside] | preferring higher degrees of polymerization such as methyl-β-1,6-galactopentaoside and methyl-β-1,6-galactohexaoside |
| CO[C@@H]1O[C@H](CO[C@@H]2O[C@H](CO[C@@H]3O[C@H](CO[C@@H]4O[C@H](CO[C@@H]5O[C@H](CO[C@@H]6O[C@H](CO)[C@H](O)[C@H](O)[C@H]6O)[C@H](O)[C@H](O)[C@H]5O)[C@H](O)[C@H](O)[C@H]4O)[C@H](O)[C@H](O)[C@H]3O)[C@H](O)[C@H](O)[C@H]2O)[C@H](O)[C@H](O)[C@H]1O [methyl-β-1,6-galactohexaoside] | preferring higher degrees of polymerization such as methyl-β-1,6-galactopentaoside and methyl-β-1,6-galactohexaoside |
